Measured values taken from US9505728B2, “Triazolone compounds and uses thereof” (INCEPTION 2, INC., priority 2012, dated 2016).

Biological target: T1, Human PPARα (Homo sapiens, UniProt Q07869)
T1 construct: host or cells: proprietary non-human mammalian cells
T1 sequence (Q07869 1-468): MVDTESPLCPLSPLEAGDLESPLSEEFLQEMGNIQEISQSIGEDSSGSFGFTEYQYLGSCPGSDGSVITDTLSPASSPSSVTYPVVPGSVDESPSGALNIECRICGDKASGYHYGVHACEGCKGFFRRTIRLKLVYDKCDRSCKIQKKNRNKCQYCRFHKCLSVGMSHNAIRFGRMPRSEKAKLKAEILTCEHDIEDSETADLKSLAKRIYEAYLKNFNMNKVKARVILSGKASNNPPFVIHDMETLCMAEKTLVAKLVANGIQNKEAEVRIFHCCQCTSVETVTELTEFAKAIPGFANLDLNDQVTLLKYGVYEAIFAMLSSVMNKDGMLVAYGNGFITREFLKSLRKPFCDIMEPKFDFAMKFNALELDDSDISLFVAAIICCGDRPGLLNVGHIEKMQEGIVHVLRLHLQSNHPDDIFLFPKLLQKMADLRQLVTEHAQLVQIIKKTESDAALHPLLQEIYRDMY
Assay: Human PPARα Reporter Assay (luciferase)
Assay type: cell-based
Settings: human PPARα reporter cells, overnight incubation, antagonism; read-out: Luciferase IC50
Description: Human PPARα Reporter Assay
The screening of test compounds for agonist or antagonist activities against human PPARα receptors was performed using a commercial kit, Human PPARα Reporter Assay System (Indigo Biosciences, Cat. #IB00111).
This nuclear receptor assay system utilizes proprietary non-human mammalian cells engineered to provide constitutive, high-level expression of Human PPARα. Because these cells incorporate a PPARα-responsive luciferase reporter gene, quantifying expressed luciferase activity provides a sensitive surrogate measure of PPARα activity in the treated cells. The primary application of this reporter assay system is in the screening of test samples to quantify any functional activity, either agonist or antagonist, that they may exert against human PPARα.
Briefly, reporter cells are dispensed into wells of the assay plate and then immediately dosed with test compounds. Following an overnight incubation, the treatment media is discarded and Luciferase Detection Reagent (LDR) is added. The intensity of light emission from the ensuing luciferase reaction provides a sensitive measure that is directly proportional to the relative level of PPARα activation in the reporter cells.

| SMILES | IC50 [nM] |
| --- | --- |
| CCn1c(CCCc2ccc(-c3cccc(-c4nnn[nH]4)c3)cc2)nn(Cc2ccc(C(C)(C)C)cc2)c1=O [Example 29, 3-(3-(3′-(1H-Tetrazol-5-yl)-[1,1′-biphenyl]-4-yl)propyl)-1-(4-(tert-butyl)benzyl)-4-ethyl-1H-1,2,4-triazol-5(4H)-one] | 1190 |
| CCn1c(CC2CC2c2ccc(-c3cccc(CC(=O)O)c3)cc2)nn(Cc2ccc(C(C)(C)C)cc2)c1=O (stereo not shown) [Example 30, 2-(4′-(2-((1-(4-(tert-butyl)benzyl)-4-ethyl-5-oxo-4,5-dihydro-1H-1,2,4-triazol-3-yl)methyl)cyclopropyl)-[1,1′-biphenyl]-3-yl)acetic acid] | 1280 |
| CC(C)n1c(CCCc2ccc(-c3cccc(CC(=O)O)c3)cc2)nn(Cc2ccc(C(C)(C)C)cc2)c1=O [Example 31, 2-(4′-(3-(1-(4-(tert-Butyl)benzyl)-4-isopropyl-5-oxo-4,5-dihydro-1H-1,2,4-triazol-3-yl)propyl)-[1,1′-biphenyl]-3-yl)acetic acid] | 1960 |
| CC(C)(C)c1ccc(Cn2nc(CCCc3ccc(-c4cccc(CC(=O)O)c4)cc3)n(-c3ccccc3)c2=O)cc1 [Example 32, 2-(4′-(3-(1-(4-(tert-Butyl)benzyl)-5-oxo-4-phenyl-4,5-dihydro-1H-1,2,4-triazol-3-yl)propyl)-[1,1′-biphenyl]-3-yl)acetic acid] | 2990 |
| CCn1c(CCCc2ccc(-c3cccc(/C=C/C(=O)O)c3)cc2)nn(Cc2ccc(C(C)(C)C)cc2)c1=O [Example 34, 3-(4′-(3-(1-(4-(tert-Butyl)benzyl)-4-ethyl-5-oxo-4,5-dihydro-1H-1,2,4-triazol-3-yl)propyl)-[1,1′-biphenyl]-3-yl)acrylic acid] | 1450 |
| CCn1c(CCCc2ccc(-c3cccc(C4CC4C(=O)O)c3)cc2)nn(Cc2ccc(C(C)(C)C)cc2)c1=O (stereo not shown) [Example 35, 2-(4′-(3-(1-(4-(tert-Butyl)benzyl)-4-ethyl-5-oxo-4,5-dihydro-1H-1,2,4-triazol-3-yl)propyl)-[1,1′-biphenyl]-3-yl)cyclopropanecarboxylic acid] | 1120 |
| CCn1c(CCCc2ccc(-c3cccc(CCC(=O)O)c3)cc2)nn(Cc2ccc(C(C)(C)C)cc2)c1=O [Example 36, 3-(4′-(3-(1-(4-(tert-Butyl)benzyl)-4-ethyl-5-oxo-4,5-dihydro-1H-1,2,4-triazol-3-yl)propyl)-[1,1′-biphenyl]-3-yl)propanoic acid] | 2760 |
| CCn1c(CCCc2ccc(-c3cccc(CC(=O)O)c3)cc2)nn(Cc2ccc(Br)cc2)c1=O [Example 37, 2-(4′-(3-(1-(4-Bromobenzyl)-4-ethyl-5-oxo-4,5-dihydro-1H-1,2,4-triazol-3-yl)propyl)-[1,1′-biphenyl]-3-yl)acetic acid] | 1960 |
| CCn1c(CCCc2ccc(-c3csc(CC(=O)O)c3)cc2)nn(Cc2ccc(C(C)(C)C)cc2)c1=O [Example 39, 2-(4-(4-(3-(1-(4-(tert-Butyl)benzyl)-4-ethyl-5-oxo-4,5-dihydro-1H-1,2,4-triazol-3-yl)propyl)phenyl)thiophen-2-yl)acetic acid] | 707 |
| CCn1c(CCCc2ccc(-c3cc(C(=O)O)cc(C(F)(F)F)c3)cc2)nn(Cc2ccc(C(C)(C)C)cc2)c1=O [Example 41, 4′-(3-(1-(4-(tert-Butyl)benzyl)-4-ethyl-5-oxo-4,5-dihydro-1H-1,2,4-triazol-3-yl)propyl)-5-(trifluoromethyl)-[1,1′-biphenyl]-3-carboxylic acid] | 510 |
| CCn1c(CCCc2ccc(-c3cccc(NS(=O)(=O)C4CC4)n3)cc2)nn(Cc2ccc(C(C)(C)C)cc2)c1=O [Example 42, 1-{[4-(tert-Butyl)phenyl]methyl}-3-[3-(4-{6-[(cyclopropylsulfonyl)amino](2-pyridyl)}phenyl)propyl]-4-ethyl-1,2,4-triazolin-5-one] | 488 |
| CCn1c(CCCc2ccc(-c3ccc(CC(=O)O)nc3)cc2)nn(Cc2ccc(C(C)(C)C)cc2)c1=O [Example 43, 2-(5-{4-[3-(1-{[4-(tert-Butyl)phenyl]methyl}-4-ethyl-5-oxo-1,2,4-triazolin-3-yl)propyl]phenyl}-2-pyridyl)acetic acid] | 898 |
| CCn1c(CCCc2ccc(-c3cccc(C(C)C(=O)O)c3)cc2)nn(Cc2ccc(C(C)(C)C)cc2)c1=O (stereo not shown) [Example 44, 2-(3-{4-[3-(1-{[4-(tert-Butyl)phenyl]methyl}-4-ethyl-5-oxo-1,2,4-triazolin-3-yl)propyl]phenyl}phenyl)propanoic acid] | 652 |
| CCC(C(=O)O)c1cccc(-c2ccc(CCCc3nn(Cc4ccc(C(C)(C)C)cc4)c(=O)n3CC)cc2)c1 (stereo not shown) [Example 46, 2-(3-{4-[3-(1-{[4-(tert-Butyl)phenyl]methyl}-4-ethyl-5-oxo-1,2,4-triazolin-3-yl)propyl]phenyl}phenyl)butanoic acid] | 699 |
| CCn1c(CCCc2ccc(-c3cccc(C(Cc4ccccc4)C(=O)O)c3)cc2)nn(Cc2ccc(C(C)(C)C)cc2)c1=O (stereo not shown) [Example 47, 2-(3-{4-[3-(1-{[4-(tert-Butyl)phenyl]methyl}-4-ethyl-5-oxo(1,2,4-triazolin-3-yl))propyl]phenyl}phenyl)-3-phenylpropanoic acid] | 685 |
| CCn1c(CCCc2ccc(-c3cccc(CC(=O)O)n3)cc2)nn(Cc2ccc(C(C)(C)C)cc2)c1=O [Example 50, 2-(6-{4-[3-(1-{[4-(tert-Butyl)phenyl]methyl}-4-ethyl-5-oxo-1,2,4-triazolin-3-yl)propyl]phenyl}-2-pyridyl) acetic acid] | 568 |

Now those with a lower IC50, led by results:

| IC50 [nM] | SMILES |
| --- | --- |
| 427 | CCn1c(CCCc2ccc(-c3ccc(F)c(CC(=O)O)c3)cc2)nn(Cc2ccc(C(C)(C)C)cc2)c1=O [Example 33, 2-(4′-(3-(1-(4-(tert-Butyl)benzyl)-4-ethyl-5-oxo-4,5-dihydro-1H-1,2,4-triazol-3-yl)propyl)-4-fluoro-[1,1′-biphenyl]-3-yl)acetic acid] |
| 10 | CCOc1ccc(-c2ccc(CCCc3nn(Cc4ccc(C(C)(C)C)cc4)c(=O)n3CC)cc2)cc1CC(=O)O [Example 38, 2-(4′-(3-(1-(4-(tert-Butyl)benzyl)-4-ethyl-5-oxo-4,5-dihydro-1H-1,2,4-triazol-3-yl)propyl)-4-ethoxy-[1,1′-biphenyl]-3-yl)acetic acid] |
| 408 | CCn1c(CCCc2ccc(-c3cc(NS(C)(=O)=O)ccn3)cc2)nn(Cc2ccc(C(C)(C)C)cc2)c1=O [Example 40, 1-{[4-(tert-Butyl)phenyl]methyl}-4-ethyl-3-[3-(4-{4-[(methylsulfonyl)amino](2-pyridyl)}phenyl)propyl]-1,2,4-triazolin-5-one] |
| 306 | CCn1c(CCCc2ccc(-c3cc(CC(=O)O)ccn3)cc2)nn(Cc2ccc(C(C)(C)C)cc2)c1=O [Example 45, 2-(2-{4-[3-(1-{[4-(tert-Butyl)phenyl]methyl}-4-ethyl-5-oxo-1,2,4-triazolin-3-yl)propyl]phenyl}-4-pyridyl)acetic acid] |
| 426 | CCn1c(CCCc2ccc(-c3cc(C(F)(F)F)cc(CC(=O)O)n3)cc2)nn(Cc2ccc(C(C)(C)C)cc2)c1=O [Example 48, 2-(6-{4-[3-(1-{[4-(tert-Butyl)phenyl]methyl}-4-ethyl-5-oxo(1,2,4-triazolin-3-yl))propyl]phenyl}-4-(trifluoromethyl)-2-pyridyl)acetic acid] |
| 69 | CCn1c(CCCc2ccc(-c3ccc(OCC4CC4)c(CC(=O)O)c3)cc2)nn(Cc2ccc(C(C)(C)C)cc2)c1=O [Example 49, 2-(4′-(3-(1-(4-(tert-Butyl)benzyl)-4-ethyl-5-oxo-4,5-dihydro-1H-1,2,4-triazol-3-yl)propyl)-4-(cyclopropylmethoxy)-[1,1′-biphenyl]-3-yl)acetic acid] |
| 292 | CCn1c(CCCc2ccc(-c3ccc(C(O)C(=O)NC4CC4)cc3)cc2)nn(Cc2ccc(C(C)(C)C)cc2)c1=O (stereo not shown) [Example 51, 2-(4′-(3-(1-(4-(tert-Butyl)benzyl)-4-ethyl-5-oxo-4,5-dihydro-1H-1,2,4-triazol-3-yl)propyl)-[1,1′-biphenyl]-4-yl)-N-cyclopropyl-2-hydroxyacetamide] |
| 440 | CCn1c(CCCc2ccc(-c3ccc(C(=O)C(=O)NC4CC4)cc3)cc2)nn(Cc2ccc(C(C)(C)C)cc2)c1=O [Example 52, 2-(4′-(3-(1-(4-(tert-Butyl)benzyl)-4-ethyl-5-oxo-4,5-dihydro-1H-1,2,4-triazol-3-yl)propyl)-[1,1′-biphenyl]-4-yl)-N-cyclopropyl-2-oxoacetamide] |
| 363 | CC(C)(C)c1ccc(Cn2nc(CCCc3ccc(-c4cccc(CC(=O)O)c4)cc3)n(CC3CC3)c2=O)cc1 [Example 53, 2-(4′-(3-(1-(4-(tert-Butyl)benzyl)-4-(cyclopropylmethyl)-5-oxo-4,5-dihydro-1H-1,2,4-triazol-3-yl)propyl)-[1,1′-biphenyl]-3-yl)acetic acid] |
